Where a name gives a salt, the structure may show the parent alone.
Test: in vitro
Conditions: rat, gh3-tre-luc cells

CCC1(c2cnc[nH]2)Cc2ccccc2C1 [Atipamezole hydrochloride]
CC50 at 24 h (AC50 (uM) modified / 1000): > 50 µM

O=C(N[C@@H](c1ccccc1)[C@@H]1CCCCN1)c1cccc(C(F)(F)F)c1Cl [SSR504734]
CC50 at 24 h (AC50 (uM) modified / 1000): 19.9 µM

O[C@@H](c1cc(C(F)(F)F)nc2c(C(F)(F)F)cccc12)[C@H]1CCCCN1 [Mefloquine hydrochloride]
CC50 at 24 h (AC50 (uM) modified / 1000): 5.17 µM

CCOP(=S)(OCC)O/N=C(\C#N)c1ccccc1 [Phoxim]
CC50 at 24 h (AC50 (uM) modified / 1000, Tox21_110001=Tox21_113357, viability, 1 nM T3 present, 24 h): > 50 µM | CC50 at 24 h (AC50 (uM) modified / 1000, Tox21_110001=Tox21_301580, viability, 1 nM T3 present, 24 h): > 90 µM

CCc1cc(SCc2sc(-c3ccc(C(F)(F)F)cc3)nc2CN2CCN(c3ccc(OC)cc3)CC2)ccc1OCC(=O)O [PharmaGSID_47315]
CC50 at 24 h (AC50 (uM) modified / 1000): 22.4 µM

CCCCOCN(C(=O)CCl)c1c(CC)cccc1CC [Butachlor]
CC50 at 24 h (AC50 (uM) modified / 1000): 49.4 µM

NNC(=O)OCc1ccccc1 [Hydrazinecarboxylic acid, phenylmethyl ester]
CC50 at 24 h (AC50 (uM) modified / 1000): > 90 µM

COC(=O)NN [Methyl carbazate]
CC50 at 24 h (AC50 (uM) modified / 1000): > 90 µM

CC/C=C\C/C=C\C/C=C\CCCCCCCC(=O)OCC [Ethyl linolenate]
CC50 at 24 h (AC50 (uM) modified / 1000): > 90 µM

C[C@]12C=CC(=O)C=C1CC[C@@H]1[C@@H]2[C@@H](O)C[C@@]2(C)[C@H]1CC[C@]2(O)C(=O)COC(=O)CCC(=O)O [Prednisolone 21-hemisuccinate]
CC50 at 24 h (AC50 (uM) modified / 1000): > 50 µM

CCCCc1ccc2[nH]c(NC(=O)OC)nc2c1 [Parbendazole]
CC50 at 24 h (AC50 (uM) modified / 1000): 0.0667 µM

CCOC(=O)C(C)C(C)=O (stereo not shown) [Ethyl-2-methyl acetoacetate]
CC50 at 24 h (AC50 (uM) modified / 1000): > 90 µM

CC(C)c1ccccc1O [2-Isopropylphenol]
CC50 at 24 h (AC50 (uM) modified / 1000): > 90 µM

O=NN(c1ccccc1)c1ccccc1 [N-Nitrosodiphenylamine]
CC50 at 24 h (AC50 (uM) modified / 1000, Tox21_110001=Tox21_201457, viability, 1 nM T3 present, 24 h): > 90 µM

Cc1cc(NS(=O)(=O)c2ccc(N)cc2)nc(C)n1 [Sulfisomidine]
CC50 at 24 h (AC50 (uM) modified / 1000): > 50 µM

C=CCON=C(CCC)C1C(=O)CC(C)(C)C(C(=O)OC)C1=O (stereo not shown) [Alloxydim-sodium]
CC50 at 24 h (AC50 (uM) modified / 1000): > 90 µM

CCN(CC)CCOc1ccc2c(c1)C(=O)c1cc(OCCN(CC)CC)ccc1-2 [Tilorone]
CC50 at 24 h (AC50 (uM) modified / 1000): > 50 µM

COC(=O)CCC[N+](C)(C)C [Carpronium chloride]
CC50 at 24 h (AC50 (uM) modified / 1000): > 50 µM

c1cnc2c(n1)CCCC2 [5,6,7,8-Tetrahydroquinoxaline]
CC50 at 24 h (AC50 (uM) modified / 1000): > 90 µM

C=CC(=O)CC [Ethyl vinyl ketone]
CC50 at 24 h (AC50 (uM) modified / 1000): > 90 µM

O=C(O)c1ccc(O)cc1O [2,4-Dihydroxybenzoic acid]
CC50 at 24 h (AC50 (uM) modified / 1000): > 90 µM

c1ccc(C2CO2)cc1 (stereo not shown) [Styrene oxide]
CC50 at 24 h (AC50 (uM) modified / 1000): > 90 µM

O=C(O)c1cccc(C[C@@H]2COc3ccc(OCc4nc5cc(F)ccc5s4)cc3[C@@H]2O)c1 [CP-085958]
CC50 at 24 h (AC50 (uM) modified / 1000): > 90 µM

FC(F)(F)c1ccccc1Cl [2-Chlorobenzotrifluoride]
CC50 at 24 h (AC50 (uM) modified / 1000): > 90 µM

CC(C)c1ccc2cc(C(C)C)ccc2c1 [2,6-Diisopropylnaphthalene]
CC50 at 24 h (AC50 (uM) modified / 1000): > 90 µM

CCOC(=O)CC(SP(=O)(OC)OC)C(=O)OCC (stereo not shown) [Malaoxon]
CC50 at 24 h (AC50 (uM) modified / 1000, Tox21_110001=Tox21_202017, viability, 1 nM T3 present, 24 h): > 90 µM

CCN1CCc2nc(N)oc2CC1 [Azepexole hydrochloride]
CC50 at 24 h (AC50 (uM) modified / 1000): > 50 µM

N#CCCCl [3-Chloropropionitrile]
CC50 at 24 h (AC50 (uM) modified / 1000): > 90 µM

O=C(O)C[C@H](NC(=O)OCc1ccccc1)C(=O)O [N-[(Benzyloxy)carbonyl]-L-aspartic acid]
CC50 at 24 h (AC50 (uM) modified / 1000): > 90 µM

Cc1cc(O)c(C(C)(C)C)cc1Sc1cc(C(C)(C)C)c(O)cc1C [4,4'-Thiobis(6-tert-butyl-m-cresol)]
CC50 at 24 h (AC50 (uM) modified / 1000): 3.64 µM

CN1CCN(C(=O)C2CCCCC2)CC1 [Pexantel]
CC50 at 24 h (AC50 (uM) modified / 1000): > 50 µM

CCCCCCCCn1sc(Cl)c(Cl)c1=O [4,5-Dichloro-2-octyl-3(2H)-isothiazolone]
CC50 at 24 h (AC50 (uM) modified / 1000): 12.7 µM

CC/C(=C\C(=N/O)C(N)=O)C(C)[N+](=O)[O-] (stereo not shown) [FR900409]
CC50 at 24 h (AC50 (uM) modified / 1000): > 90 µM

C[C@@H]1C[C@H]2[C@@H]3CCC4=CC(=O)C=C[C@]4(C)[C@@]3(F)[C@@H](O)C[C@]2(C)[C@H]1C(=O)CO [Desoximetasone]
CC50 at 24 h (AC50 (uM) modified / 1000): > 50 µM

CCCCCCCCC(CCCCCC)C(=O)O (stereo not shown) [2-Hexyldecanoic acid]
CC50 at 24 h (AC50 (uM) modified / 1000): > 90 µM

C[C]1([Mn](=[C]=O)(=[C]=O)=[C]=O)C=CC=C1 [(Methylcyclopentadienyl)tricarbonylmanganese]
CC50 at 24 h (AC50 (uM) modified / 1000): > 90 µM

Source: publication PMC6792352, “Limited Chemical Structural Diversity Found to Modulate Thyroid Hormone Receptor in the Tox21 Chemical Library” (Environmental Health Perspectives, 2019)
